2 compounds from US20040006142A1, “Ocular tension depressor” (priority 2002, published 2004) can be followed below.

This test is described as follows: Ocular tension (IOP) lowering in rabbits after eye drop, Tonopen XL tonometer. Conditions: eye drop of 0.5% preparation, 50 μL; for AUC0-8 hr Δ IOP % mean ± S.D.: IOP before, 2.5 h and 8 h after treatment, trapezoidal rule, change relative to pre-treatment; for ocular tension compared with the control group: p < 0.05 vs medium control. In kind it is in vivo, Rabbits (New Zealand albino). The procedure: Rabbits (New Zealand albino, body weight: 2.0 to 2.5 kg) having ocular tension of 15 mmHg before treated were used in this experiment. Experimental group of the rabbits were treated with an eye drop of the preparation of a 0.5% concentration of the compounds A and B with a dosage of 50 μL at a time. Control group of the rabbits were treated with an eye drop of a medium (ophthalmic solutions containing 0.40% of NaH2PO4, 0.47% of NaHPO4, 0.47% of NaCl, and 1.0% of polysorbate 80 with pH 6.8) with the same dosage as in the experimental group at a time. The ocular tension of the experimental group and the control group was measured with a Tonopen™ XL tonometer before treatment, 2.5 hours, and 8 hours after treatment.
Next, a ratio of ocular tension change relative to ocular tension measured before treatment (Δ IOP %) was calculated, and an area (AUC0-8hr Δ IOP %) defined by the area under the curve obtained by plotting out Δ IOP % with respect to the horizontal axis representing lapse of time was calculated in accordance with a method of trapezoidal rule.

As for `COc1cc(C(=O)N(C)c2ccc(C)cc2OCCCCCC(=O)N2CCN(C)CC2)ccc1NC(=O)c1ccccc1OCCCN` [Compound A, 4-[2-(3-aminopropyl-1-yl)oxy]benzoylamino-3-methoxy-N-methyl-N-{4-methyl-2-[5-(4-methylpiperazin-1-yl)carbonylpent-1-yloxy]phenyl}benzamide], the “AUC0-8 hr Δ IOP % mean ± S.D.” value was −147.0 ± 89.0 % and the “ocular tension compared with the control group” value is given as “significantly lowered”.

Regarding `Cc1ccc(-c2ccccc2C(=O)Nc2ccc(C(=O)N3CCC(=O)N(CC(=O)N4CCN(C)CC4)c4ccccc43)cc2)cc1` [Compound B, 5-{4-[2-(4-methylphenyl)benzoylamino]benzoyl}-1-[(4-methyl-1-piperazinyl)carbonylmethyl]-1,3,4,5-tetrahydro-1,5-benzodi azepin-2(2H)-one], the “AUC0-8 hr Δ IOP % mean ± S.D.” value is −145.8 ± 87.7 % and the “ocular tension compared with the control group” value is given as “significantly lowered”.
